# PMC7481290, “Halogenation as a tool to tune antimicrobial activity of peptoids” (Scientific Reports, 2020)
# Non-standard residues stand in square brackets, D forms with d. Residues, ends and D or L forms follow the SMILES beside them. Gly(Nα-4-Cl-benzyl) = O=C(O)CNCc1ccc(Cl)cc1; N(4-Br-benzyl)Gly = O=C(O)CNCc1ccc(Br)cc1; N(4-F-Bzl)Gly = O=C(O)CNCc1ccc(F)cc1; NBzl(4-I)Gly = O=C(O)CNCc1ccc(I)cc1; Nphe = O=C(O)CNCc1ccccc1; Nlys = NCCCCNCC(=O)O
# Experiments:
# [1] = system: Methicillin-resistant S. aureus USA 300; type: cell-based, Staphylococcus aureus; conditions: USA 300, 18 h
# Procedure: (§1) Bacterial growth inhibition was determined by using broth microdilution according to the Clinical Laboratory Standards Institute[43]. The antibacterial activity of peptoids was tested against S. aureus ATCC 25923, ATCC29213, and methicillin resistant S. aureus USA 300, methicillin resistant S. epidermidis ATCC 51625, a biofilm producing methicillin resistant S. epidermidis ET-024[44], P. aeruginosa Pa01 (H103), and E. coli ATCC 25922. Bacteria, grown on agar plates for 18 h at 37 °C, were diluted to ∼1 × 10^8 CFU/mL in Mueller‐Hinton Broth II (MHB II). Twofold serial dilutions of peptoids in MHB II were inoculated with bacteria to achieve a final concentration of 5 × 10^5 CFU/mL in polypropylene 96 U‐well microtiter plates (Corning 3,897; ThermoFisher Scientific, Roskilde), followed by incubation at 37 °C in ambient air for 18 h. The MIC values were determined as the lowest concentration showing no visible bacterial growth. Experiments were performed twice (in technical triplicates) on 2 different days.
# S. aureus ATCC 25923 = type: cell-based, Staphylococcus aureus; conditions: ATCC 25923, 18 h
# Procedure: as §1
# S. aureus ATCC 29213 = type: cell-based, Staphylococcus aureus; conditions: ATCC 29213, 18 h
# Procedure: as §1
# [2] = system: Methicillin-resistant S. epidermidis ATCC 51625; type: cell-based, Staphylococcus epidermidis; conditions: ATCC 51625, 18 h
# Procedure: as §1
# [3] = system: Methicillin-resistant S. epidermidis ET-024; type: cell-based, Staphylococcus epidermidis; conditions: Methicillin-resistant ET-024, 18 h
# Procedure: as §1
# E. coli ATCC 25922 = type: cell-based, Escherichia coli; conditions: ATCC 25922, 18 h
# Procedure: as §1
# [4] = system: P. aeruginosa PA01 (H103); type: cell-based, Pseudomonas aeruginosa; conditions: H103, 18 h
# Procedure: as §1
Compound,Minimal inhibitory concentration MRSA^c [1],Minimal inhibitory concentration SA^a (S. aureus ATCC 25923),Minimal inhibitory concentration SA^b (S. aureus ATCC 29213),Minimal inhibitory concentration MRSE^e [2],Minimal inhibitory concentration MRSE^d [3],Minimal inhibitory concentration EC^f (E. coli ATCC 25922),Minimal inhibitory concentration PA^g [4]
NCCCCNCC(=O)N(CC(=O)N(CCCCN)CC(=O)N(CC(=O)N(CCCCN)CC(=O)N(CC(=O)N(CCCCN)CC(=O)N(CC(N)=O)Cc1ccc(F)cc1)Cc1ccccc1)Cc1ccc(F)cc1)Cc1ccccc1 [Compound 15] (H-[Nlys][Nphe][Nlys][N(4-F-Bzl)Gly][Nlys][Nphe][Nlys][N(4-F-Bzl)Gly]-NH2),> 512 µg/mL,> 512 µg/mL,> 512 µg/mL,128 µg/mL,128 µg/mL,512 µg/mL,512 µg/mL
NCCCCNCC(=O)N(CC(=O)N(CCCCN)CC(=O)N(CC(=O)N(CCCCN)CC(=O)N(CC(=O)N(CCCCN)CC(=O)N(CC(N)=O)Cc1ccc(Cl)cc1)Cc1ccccc1)Cc1ccc(Cl)cc1)Cc1ccccc1 [Compound 16] (H-[Nlys][Nphe][Nlys][Gly(Nα-4-Cl-benzyl)][Nlys][Nphe][Nlys][Gly(Nα-4-Cl-benzyl)]-NH2),16 µg/mL,16 µg/mL,64 µg/mL,8 µg/mL,8 µg/mL,256 µg/mL,512 µg/mL
NCCCCNCC(=O)N(CC(=O)N(CCCCN)CC(=O)N(CC(=O)N(CCCCN)CC(=O)N(CC(=O)N(CCCCN)CC(=O)N(CC(N)=O)Cc1ccc(Br)cc1)Cc1ccccc1)Cc1ccc(Br)cc1)Cc1ccccc1 [Compound 17] (H-[Nlys][Nphe][Nlys][N(4-Br-benzyl)Gly][Nlys][Nphe][Nlys][N(4-Br-benzyl)Gly]-NH2),32 µg/mL,16 µg/mL,32 µg/mL,4 µg/mL,4 µg/mL,256 µg/mL,512 µg/mL
NCCCCNCC(=O)N(CC(=O)N(CCCCN)CC(=O)N(CC(=O)N(CCCCN)CC(=O)N(CC(=O)N(CCCCN)CC(=O)N(CC(N)=O)Cc1ccc(I)cc1)Cc1ccccc1)Cc1ccc(I)cc1)Cc1ccccc1 [Compound 18] (H-[Nlys][Nphe][Nlys][NBzl(4-I)Gly][Nlys][Nphe][Nlys][NBzl(4-I)Gly]-NH2),16 µg/mL,32 µg/mL,32 µg/mL,4 µg/mL,8 µg/mL,256 µg/mL,> 512 µg/mL
NCCCCNCC(=O)N(CC(=O)N(CCCCN)CC(=O)N(CC(=O)N(CCCCN)CC(=O)N(CC(=O)N(CCCCN)CC(=O)N(CC(=O)N(CCCCN)CC(=O)N(CC(=O)N(CCCCN)CC(=O)N(CC(N)=O)Cc1ccc(F)cc1)Cc1ccc(F)cc1)Cc1ccc(F)cc1)Cc1ccc(F)cc1)Cc1ccc(F)cc1)Cc1ccc(F)cc1 [Compound 29] (H-[Nlys][N(4-F-Bzl)Gly][Nlys][N(4-F-Bzl)Gly][Nlys][N(4-F-Bzl)Gly][Nlys][N(4-F-Bzl)Gly][Nlys][N(4-F-Bzl)Gly][Nlys][N(4-F-Bzl)Gly]-NH2),16 µg/mL,32 µg/mL,32 µg/mL,4 µg/mL,4 to 8 µg/mL,256 µg/mL,64 µg/mL
NCCCCNCC(=O)N(CC(=O)N(CCCCN)CC(=O)N(CC(=O)N(CCCCN)CC(=O)N(CC(=O)N(CCCCN)CC(=O)N(CC(=O)N(CCCCN)CC(=O)N(CC(=O)N(CCCCN)CC(=O)N(CC(N)=O)Cc1ccc(Cl)cc1)Cc1ccc(Cl)cc1)Cc1ccc(Cl)cc1)Cc1ccc(Cl)cc1)Cc1ccc(Cl)cc1)Cc1ccc(Cl)cc1 [Compound 30] (H-[Nlys][Gly(Nα-4-Cl-benzyl)][Nlys][Gly(Nα-4-Cl-benzyl)][Nlys][Gly(Nα-4-Cl-benzyl)][Nlys][Gly(Nα-4-Cl-benzyl)][Nlys][Gly(Nα-4-Cl-benzyl)][Nlys][Gly(Nα-4-Cl-benzyl)]-NH2),2 µg/mL,2 µg/mL,2 µg/mL,1 µg/mL,2 µg/mL,64 µg/mL,> 512 µg/mL
NCCCCNCC(=O)N(CC(=O)N(CCCCN)CC(=O)N(CC(=O)N(CCCCN)CC(=O)N(CC(=O)N(CCCCN)CC(=O)N(CC(=O)N(CCCCN)CC(=O)N(CC(=O)N(CCCCN)CC(=O)N(CC(N)=O)Cc1ccc(Br)cc1)Cc1ccc(Br)cc1)Cc1ccc(Br)cc1)Cc1ccc(Br)cc1)Cc1ccc(Br)cc1)Cc1ccc(Br)cc1 [Compound 31] (H-[Nlys][N(4-Br-benzyl)Gly][Nlys][N(4-Br-benzyl)Gly][Nlys][N(4-Br-benzyl)Gly][Nlys][N(4-Br-benzyl)Gly][Nlys][N(4-Br-benzyl)Gly][Nlys][N(4-Br-benzyl)Gly]-NH2),2 µg/mL,4 µg/mL,8 µg/mL,4 µg/mL,4 µg/mL,64 µg/mL,256 µg/mL
NCCCCNCC(=O)N(CC(=O)N(CCCCN)CC(=O)N(CC(=O)N(CCCCN)CC(=O)N(CC(=O)N(CCCCN)CC(=O)N(CC(=O)N(CCCCN)CC(=O)N(CC(=O)N(CCCCN)CC(=O)N(CC(N)=O)Cc1ccc(F)cc1)Cc1ccccc1)Cc1ccc(F)cc1)Cc1ccccc1)Cc1ccc(F)cc1)Cc1ccccc1 [Compound 33] (H-[Nlys][Nphe][Nlys][N(4-F-Bzl)Gly][Nlys][Nphe][Nlys][N(4-F-Bzl)Gly][Nlys][Nphe][Nlys][N(4-F-Bzl)Gly]-NH2),128 µg/mL,256 µg/mL,256 µg/mL,4 µg/mL,16 µg/mL,256 µg/mL,256 µg/mL
NCCCCNCC(=O)N(CC(=O)N(CCCCN)CC(=O)N(CC(=O)N(CCCCN)CC(=O)N(CC(=O)N(CCCCN)CC(=O)N(CC(=O)N(CCCCN)CC(=O)N(CC(=O)N(CCCCN)CC(=O)N(CC(N)=O)Cc1ccc(Cl)cc1)Cc1ccccc1)Cc1ccc(Cl)cc1)Cc1ccccc1)Cc1ccc(Cl)cc1)Cc1ccccc1 [Compound 34] (H-[Nlys][Nphe][Nlys][Gly(Nα-4-Cl-benzyl)][Nlys][Nphe][Nlys][Gly(Nα-4-Cl-benzyl)][Nlys][Nphe][Nlys][Gly(Nα-4-Cl-benzyl)]-NH2),8 µg/mL,16 µg/mL,8 µg/mL,1 µg/mL,4 µg/mL,256 µg/mL,> 512 µg/mL
NCCCCNCC(=O)N(CC(=O)N(CCCCN)CC(=O)N(CC(=O)N(CCCCN)CC(=O)N(CC(=O)N(CCCCN)CC(=O)N(CC(=O)N(CCCCN)CC(=O)N(CC(=O)N(CCCCN)CC(=O)N(CC(N)=O)Cc1ccc(Br)cc1)Cc1ccccc1)Cc1ccc(Br)cc1)Cc1ccccc1)Cc1ccc(Br)cc1)Cc1ccccc1 [Compound 35] (H-[Nlys][Nphe][Nlys][N(4-Br-benzyl)Gly][Nlys][Nphe][Nlys][N(4-Br-benzyl)Gly][Nlys][Nphe][Nlys][N(4-Br-benzyl)Gly]-NH2),8 µg/mL,8 µg/mL,8 µg/mL,1 µg/mL,8 µg/mL,256 µg/mL,> 512 µg/mL
NCCCCNCC(=O)N(CC(=O)N(CCCCN)CC(=O)N(CC(=O)N(CCCCN)CC(=O)N(CC(=O)N(CCCCN)CC(=O)N(CC(=O)N(CCCCN)CC(=O)N(CC(=O)N(CCCCN)CC(=O)N(CC(N)=O)Cc1ccc(I)cc1)Cc1ccccc1)Cc1ccc(I)cc1)Cc1ccccc1)Cc1ccc(I)cc1)Cc1ccccc1 [Compound 36] (H-[Nlys][Nphe][Nlys][NBzl(4-I)Gly][Nlys][Nphe][Nlys][NBzl(4-I)Gly][Nlys][Nphe][Nlys][NBzl(4-I)Gly]-NH2),4 µg/mL,8 µg/mL,16 µg/mL,1 µg/mL,4 µg/mL,256 µg/mL,> 512 µg/mL
